Calls of active or inactive are those of the source. No cut-off for these calls is given here.
Legend:
Estrogen receptor [1] = target: T1, Estrogen receptor (Homo sapiens, UniProt P03372); experiment: Displacement of Fluormone ES2 from human recombinant full length untagged-ERalpha by fluorescence polarization competition binding assay
T1 sequence (P03372 whole entry): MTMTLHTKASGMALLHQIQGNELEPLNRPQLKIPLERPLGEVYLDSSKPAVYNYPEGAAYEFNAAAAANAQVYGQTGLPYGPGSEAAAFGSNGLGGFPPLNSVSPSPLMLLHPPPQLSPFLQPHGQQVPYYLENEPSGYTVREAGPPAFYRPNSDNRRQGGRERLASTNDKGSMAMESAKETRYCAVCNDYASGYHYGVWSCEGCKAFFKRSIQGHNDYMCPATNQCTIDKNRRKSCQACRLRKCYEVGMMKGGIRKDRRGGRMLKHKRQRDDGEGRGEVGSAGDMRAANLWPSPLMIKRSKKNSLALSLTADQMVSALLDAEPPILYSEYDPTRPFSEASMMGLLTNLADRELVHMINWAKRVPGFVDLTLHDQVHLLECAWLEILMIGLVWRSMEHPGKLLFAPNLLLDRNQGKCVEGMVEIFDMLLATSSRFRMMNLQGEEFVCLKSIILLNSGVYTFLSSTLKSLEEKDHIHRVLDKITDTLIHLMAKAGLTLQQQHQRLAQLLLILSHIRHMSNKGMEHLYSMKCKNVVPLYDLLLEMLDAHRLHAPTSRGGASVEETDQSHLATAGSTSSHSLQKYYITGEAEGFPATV

[2] = target: T2, Estrogen receptor (Homo sapiens) (UniProt P03372); experiment: Down regulation of ERalpha in human MCF7 cells after 6 hrs in presence of 10 uM proteasome inhibitor MG132 by Western blot analysis; assay type: cell-based
T2 sequence (whole entry): T1 sequence (P03372 whole entry)

[3] = target: T2, Estrogen receptor (Homo sapiens); experiment: Down regulation of ERalpha in human MCF7 cells at 10 uM after 6 hrs by Western blot analysis in absence of MG132
Estrogen receptor [4] = target: T1, Estrogen receptor; experiment: Antagonist activity at ERalpha (unknown origin) transfected in 17beta-estradiol induced-HEK293 cells assessed as inhibition of estradiol-mediated protein transcriptional activity after 16 to 20 hrs by Luciferase reporter gene assay

SMILES	IC50 (Estrogen receptor [1]) [nM]	Activity [2]	Activity [3]	IC50 (Estrogen receptor [4]) [nM]
CCCCCCCCNCCOc1ccc(C(=O)c2c(-c3ccc(O)cc3)sc3cc(O)ccc23)cc1	49	–	–	–
CCCCCCCCCCCCNCCOc1ccc(C(=O)c2c(-c3ccc(O)cc3)sc3cc(O)ccc23)cc1	5.9	inactive	Dose-dependent effect	0.09
CCCCCCCCCCNCCOc1ccc(C(=O)c2c(-c3ccc(O)cc3)sc3cc(O)ccc23)cc1	40	inactive	Dose-dependent effect	0.68
CCCCCCNCCOc1ccc(C(=O)c2c(-c3ccc(O)cc3)sc3cc(O)ccc23)cc1	61	–	–	–

Other lines, results leading:

IC50 (Estrogen receptor [1]) [nM]	Activity [2]	Activity [3]	IC50 (Estrogen receptor [4]) [nM]	SMILES
1.8	–	–	–	CCCCCCCCCCCCCCCCCCNCCOc1ccc(C(=O)c2c(-c3ccc(O)cc3)sc3cc(O)ccc23)cc1
28	–	–	–	CCCCCCCCCCCCCCNCCOc1ccc(C(=O)c2c(-c3ccc(O)cc3)sc3cc(O)ccc23)cc1
11	–	–	–	CCCCCCCCCCCCCCCCNCCOc1ccc(C(=O)c2c(-c3ccc(O)cc3)sc3cc(O)ccc23)cc1

— ChEMBL document CHEMBL3804822 (Bioorg Med Chem, 2016)
